The values below come from ChEMBL document CHEMBL1145739, “N-(3-phenylsulfonyl-3-piperidinoyl)-phenylalanine derivatives as potent, selective VLA-4 antagonists” (Bioorg Med Chem Lett, 2003).

For one series, the target named is Integrin alpha-4/beta-1 (Homo sapiens, UniProt P05556+P13612). Put plainly: Binding affinity towards VLA-4 (alpha4 beta-1) receptor in human Jurkat cells using [125I]VCAM-Ig as radioligand. It counts as cell-based.
For series [1], the target named is T1, Integrin alpha-4/beta-7 (Homo sapiens) (UniProt P13612+P26010). Put plainly: Percent inhibition of [125I]VCAM-Ig binding to human integrin alpha4-beta7 receptor of RPMI-8866 cells at 100 nM. It counts as cell-based.
Series [2] deals with T2, Integrin alpha-4/beta-7 (Homo sapiens, UniProt P13612+P26010).
T2 sequence (P13612 whole entry): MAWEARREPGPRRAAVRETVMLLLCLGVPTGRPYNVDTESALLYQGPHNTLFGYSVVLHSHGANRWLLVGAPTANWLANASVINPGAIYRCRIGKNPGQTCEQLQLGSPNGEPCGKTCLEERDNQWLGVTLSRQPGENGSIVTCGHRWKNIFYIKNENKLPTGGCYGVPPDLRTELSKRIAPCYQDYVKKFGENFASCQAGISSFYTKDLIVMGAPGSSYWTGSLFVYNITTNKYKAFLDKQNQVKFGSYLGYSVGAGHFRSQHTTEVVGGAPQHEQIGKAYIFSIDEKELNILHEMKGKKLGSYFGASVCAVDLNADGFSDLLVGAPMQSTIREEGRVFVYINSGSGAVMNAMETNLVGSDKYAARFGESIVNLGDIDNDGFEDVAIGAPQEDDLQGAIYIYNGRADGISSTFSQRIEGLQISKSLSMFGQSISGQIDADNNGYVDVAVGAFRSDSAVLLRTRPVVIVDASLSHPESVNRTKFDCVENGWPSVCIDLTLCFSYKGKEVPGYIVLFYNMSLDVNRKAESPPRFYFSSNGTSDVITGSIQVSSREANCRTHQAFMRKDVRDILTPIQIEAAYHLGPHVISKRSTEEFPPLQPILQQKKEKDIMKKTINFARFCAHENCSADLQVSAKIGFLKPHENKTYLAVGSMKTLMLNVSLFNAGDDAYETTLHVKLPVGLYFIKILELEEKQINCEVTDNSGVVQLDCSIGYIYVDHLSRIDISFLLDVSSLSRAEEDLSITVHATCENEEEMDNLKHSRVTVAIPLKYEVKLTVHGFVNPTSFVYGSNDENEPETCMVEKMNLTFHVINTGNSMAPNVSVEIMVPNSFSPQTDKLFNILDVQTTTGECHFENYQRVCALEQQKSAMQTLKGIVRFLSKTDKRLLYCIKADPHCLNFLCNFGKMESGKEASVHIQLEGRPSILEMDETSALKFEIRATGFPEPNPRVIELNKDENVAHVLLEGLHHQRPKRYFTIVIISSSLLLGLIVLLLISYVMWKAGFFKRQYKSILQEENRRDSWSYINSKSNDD
T2 sequence (P26010 whole entry): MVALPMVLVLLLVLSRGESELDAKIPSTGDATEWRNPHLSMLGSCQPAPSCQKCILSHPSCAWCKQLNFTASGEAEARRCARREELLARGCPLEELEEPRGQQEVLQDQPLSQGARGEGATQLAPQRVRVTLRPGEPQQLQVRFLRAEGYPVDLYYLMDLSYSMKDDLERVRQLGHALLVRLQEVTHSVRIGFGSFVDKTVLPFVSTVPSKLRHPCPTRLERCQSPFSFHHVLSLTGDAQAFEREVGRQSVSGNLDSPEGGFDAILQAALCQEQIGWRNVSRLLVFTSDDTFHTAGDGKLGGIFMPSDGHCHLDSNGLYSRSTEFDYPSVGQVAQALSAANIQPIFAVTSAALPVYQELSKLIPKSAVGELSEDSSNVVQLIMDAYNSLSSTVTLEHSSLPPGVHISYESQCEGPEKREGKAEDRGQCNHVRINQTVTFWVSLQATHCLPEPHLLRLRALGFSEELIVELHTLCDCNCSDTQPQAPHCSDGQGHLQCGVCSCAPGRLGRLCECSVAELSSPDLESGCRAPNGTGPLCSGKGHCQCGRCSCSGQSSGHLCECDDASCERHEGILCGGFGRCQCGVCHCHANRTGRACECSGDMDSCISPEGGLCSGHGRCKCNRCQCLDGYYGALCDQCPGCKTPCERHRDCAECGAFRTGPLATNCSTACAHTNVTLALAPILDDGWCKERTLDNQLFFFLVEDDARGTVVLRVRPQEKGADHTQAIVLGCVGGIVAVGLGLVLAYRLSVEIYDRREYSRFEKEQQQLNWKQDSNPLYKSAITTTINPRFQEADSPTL
Description: Inhibition of [125I]-VCAM-Ig binding to human integrin alpha4-beta7 receptor in RPMI-8866 cells. The class given is cell-based.

Series [3] in a line: Oral bioavailability in rat (Sprague-Dawley) (dose 2 mg/kg). It counts as ADME, organism-based. The settings on record: in vivo.
The nature of series [4]: Half life time was evaluated at 1 mg/kg of iv administration in Sprague-Dawley rats. The class given is ADME, organism-based. On the set-up: dose 1 mg/kg, route intravenous. As to conditions: rat, in vivo.
Series [5] has as its target T2, Integrin alpha-4/beta-7. Put plainly: Binding affinity towards […] receptor in human RPMI-8866 B-cell line using [125I]MAdCAM-Ig as radioligand.
Series [6] can be described thus: Plasma clearance was evaluated at 1 mg/kg of iv administration in Sprague-Dawley rats. It counts as ADME, organism-based. Also on record: dose 1 mg/kg, route intravenous. The settings on record: rat, read-out: Clp.
The target of series [7] is T1, Integrin alpha-4/beta-7 (Homo sapiens). Description: Percent inhibition of [125I]MAdCAM-Ig binding to human integrin alpha4-beta7 receptor of RPMI-8866 cells at 100 nM. It counts as cell-based.

Sequence of Integrin alpha-4/beta-1 (P05556 whole entry, one chain of several): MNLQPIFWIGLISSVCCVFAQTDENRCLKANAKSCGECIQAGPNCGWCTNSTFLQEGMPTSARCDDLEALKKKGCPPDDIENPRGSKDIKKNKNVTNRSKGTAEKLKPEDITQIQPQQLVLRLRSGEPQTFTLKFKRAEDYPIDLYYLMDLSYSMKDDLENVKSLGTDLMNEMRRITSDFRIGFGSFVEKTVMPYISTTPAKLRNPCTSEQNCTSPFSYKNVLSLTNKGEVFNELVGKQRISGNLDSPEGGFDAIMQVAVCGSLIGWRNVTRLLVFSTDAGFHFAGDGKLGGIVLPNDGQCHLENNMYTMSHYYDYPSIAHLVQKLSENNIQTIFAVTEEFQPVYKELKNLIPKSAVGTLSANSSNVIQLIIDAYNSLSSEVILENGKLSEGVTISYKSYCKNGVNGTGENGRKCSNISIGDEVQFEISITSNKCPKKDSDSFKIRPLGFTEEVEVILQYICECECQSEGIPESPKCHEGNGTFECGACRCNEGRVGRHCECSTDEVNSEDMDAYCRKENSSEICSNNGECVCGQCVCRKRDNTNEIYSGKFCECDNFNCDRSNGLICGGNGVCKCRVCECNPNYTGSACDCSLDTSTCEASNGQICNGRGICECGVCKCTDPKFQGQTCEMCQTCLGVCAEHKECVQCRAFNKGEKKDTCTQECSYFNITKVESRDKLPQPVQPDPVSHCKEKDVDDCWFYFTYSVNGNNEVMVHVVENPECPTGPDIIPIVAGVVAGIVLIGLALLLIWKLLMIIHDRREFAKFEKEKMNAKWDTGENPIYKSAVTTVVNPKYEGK

`O=C(O)[C@H](Cc1ccc(-c2ccccc2)cc1)NC(=O)C1(S(=O)(=O)c2ccccc2Br)CCCCC1` yielded a 50% inhibitory concentration (IC50) at Integrin alpha-4/beta-1 of 45 nM. Also, in series [1], the inhibition turned out to be 13%.

As to `COc1ccccc1-c1ccc(C[C@H](NC(=O)C2(S(=O)(=O)c3nccn3C)CCCC2)C(=O)O)cc1`, the values for the half-inhibitory concentration (IC50) on Integrin alpha-4/beta-1 and on Integrin alpha-4/beta-7 [2] were 0.21 nM and 4 nM, respectively.

`O=C(O)[C@H](Cc1ccc(-c2ccccc2)cc1)NC(=O)C1(S(=O)(=O)C2CCCCC2)CCCCC1`: the IC50 at Integrin alpha-4/beta-1 was determined as 14 nM. Besides, the inhibition in series [1] turned out to be 24%.

For the molecule `COc1ccccc1-c1ccc(C[C@H](NC(=O)C2(S(=O)(=O)c3ccccc3C)CCCCC2)C(=O)O)cc1`, the concentration for half-maximal inhibition (IC50) on Integrin alpha-4/beta-1 was determined as 2.7 nM; at Integrin alpha-4/beta-7 [2], 149 nM.

Take `COc1cccc(OC)c1-c1ccc(C[C@H](NC(=O)C2(S(=O)(=O)c3ccccc3)CCCNC2)C(=O)O)cc1` (some centres undefined): the results for the concentration for half-maximal inhibition (IC50) on Integrin alpha-4/beta-1 and on Integrin alpha-4/beta-7 [5] were 0.09 nM and 168 nM, respectively. The molecule further displayed a bioavailability in series [3] of 1%. The same molecule gave a half-life in series [4] of 30 min. In addition, the clearance in series [6] was 46 mL/min/kg.

Regarding `COc1ccccc1-c1ccc(C[C@H](NC(=O)C2(S(=O)(=O)c3ccc(Cl)cc3)CCCCC2)C(=O)O)cc1`, the concentration for half-maximal inhibition (IC50) was 1.1 nM at Integrin alpha-4/beta-1 and 53 nM at Integrin alpha-4/beta-7 [2].

Take `O=C(O)[C@H](Cc1ccc(-c2ccccc2)cc1)NC(=O)C1(S(=O)(=O)c2ccccc2)CCCC1`: on Integrin alpha-4/beta-1, the IC50 worked out at 28 nM. Moreover, in series [1], the inhibition amounted to 18%.

As for `COc1ccccc1-c1ccc(C[C@H](NC(=O)C2(S(=O)(=O)c3ccc(F)cc3)CCCCC2)C(=O)O)cc1`, the results for the concentration for half-maximal inhibition (IC50) on Integrin alpha-4/beta-1 and at Integrin alpha-4/beta-7 [2] were 0.75 nM and 25 nM, respectively.

Consider `COc1ccccc1-c1ccc(C[C@H](NC(=O)C2(S(=O)(=O)c3ccc(C)cc3)CCCCC2)C(=O)O)cc1`, for which the IC50 was 1.5 nM at Integrin alpha-4/beta-1 and 91 nM on Integrin alpha-4/beta-7 [2].

On to `COc1ccccc1-c1ccc(C[C@H](NC(=O)C2(S(=O)(=O)C(C)(C)C)CCCC2)C(=O)O)cc1`, for which the 50% inhibitory concentration (IC50) came to 0.47 nM at Integrin alpha-4/beta-1 and 19 nM at Integrin alpha-4/beta-7 [2].

The molecule `Cc1ccc(S(=O)(=O)C2(C(=O)N[C@@H](Cc3ccc(-c4ccccc4)cc3)C(=O)O)CCCC2)cc1` returned an IC50 at Integrin alpha-4/beta-1 of 28 nM. Further, the inhibition in series [1] stood at 2%.

The molecule `Cc1ccc(S(=O)(=O)C2(C(=O)N[C@@H](Cc3ccc(-c4ccccc4)cc3)C(=O)O)CCCCC2)cc1` came in with a half-maximal inhibitory concentration (IC50) at Integrin alpha-4/beta-1 of 53 nM. For the same molecule, in series [1], the inhibition is 0%.

For the molecule `O=C(O)[C@H](Cc1ccc(-c2ccccc2)cc1)NC(=O)C1(S(=O)(=O)Cc2ccccc2)CCCC1`, on Integrin alpha-4/beta-1, the half-inhibitory concentration (IC50) is 81 nM. Also, the inhibition in series [1] was -7%.

At Integrin alpha-4/beta-1, `O=C(O)[C@H](Cc1ccc(-c2ccccc2)cc1)NC(=O)C1(S(=O)(=O)c2ccccc2)CC=CC1` gave an IC50 of 275 nM. Moreover, the inhibition in series [7] was 7%.

The molecule `O=C(O)[C@H](Cc1ccc(-c2ccccc2)cc1)NC(=O)C1(S(=O)(=O)c2ccccc2Br)CCCC1` yielded an IC50 at Integrin alpha-4/beta-1 of 105 nM. In series [1], the inhibition was determined as 8%.

Turning to `O=C(O)[C@H](Cc1ccc(-c2ccccc2)cc1)NC(=O)C1(S(=O)(=O)c2cccc3ccccc23)CCCC1`, the half-inhibitory concentration (IC50) on Integrin alpha-4/beta-1 amounted to 735 nM. Besides, the inhibition in series [1] came out at 7%.

Regarding `O=C(Nc1ccc(C[C@H](NC(=O)C2(S(=O)(=O)c3ccccc3)CCOCC2)C(=O)O)cc1)c1c(Cl)cccc1Cl`, the IC50 was 0.22 nM on Integrin alpha-4/beta-1 and 20 nM at Integrin alpha-4/beta-7 [5]. The molecule also yielded a bioavailability in series [3] of 1%. The molecule further gave a half-life in series [4] of 36 min. For the same molecule, the clearance in series [6] amounted to 48 mL/min/kg.

On Integrin alpha-4/beta-1, `O=C(O)[C@H](Cc1ccc(-c2ccccc2)cc1)NC(=O)C1(S(=O)(=O)c2ccc(Br)cc2)CCCCC1` displayed an IC50 of 44 nM. The inhibition in series [1] came to 19%.

For `O=C(Nc1ccc(C[C@H](NC(=O)C2(S(=O)(=O)c3ccccc3)CCCNC2)C(=O)O)cc1)c1c(Cl)cccc1Cl` (some centres undefined), the concentration for half-maximal inhibition (IC50) at Integrin alpha-4/beta-1 was 0.19 nM; on Integrin alpha-4/beta-7 [5], 22 nM. This molecule also gave a bioavailability in series [3] of 0%. The half-life in series [4] is 18 min. In addition, the clearance in series [6] was determined as 78 mL/min/kg.

As for `COc1cccc(OC)c1-c1ccc(C[C@H](NC(=O)C2(S(=O)(=O)c3ccccc3)CCOCC2)C(=O)O)cc1`, the figures for the IC50 on Integrin alpha-4/beta-1 and at Integrin alpha-4/beta-7 [5] were 0.16 nM and 38 nM, respectively. This molecule also had a bioavailability in series [3] of 3%. Besides, in series [4], the half-life was 48 min. Moreover, the clearance in series [6] stood at 133 mL/min/kg.

Turning to `O=C(O)[C@H](Cc1ccc(-c2ccccc2)cc1)NC(=O)C1(S(=O)(=O)C2CCCCC2)CCCC1`, the IC50 on Integrin alpha-4/beta-1 turned out to be 7 nM. In series [1], the inhibition was determined as 16%.

Turning to `O=C(O)[C@H](Cc1ccc(-c2ccccc2)cc1)NC(=O)C1(S(=O)(=O)Cc2ccccc2)CCCCC1`, the 50% inhibitory concentration (IC50) at Integrin alpha-4/beta-1 was determined as 65 nM. Besides, in series [1], the inhibition turned out to be 14%.

Consider `COc1ccccc1-c1ccc(C[C@H](NC(=O)C2(S(=O)(=O)c3ccccc3)CCCC2)C(=O)O)cc1`, for which the IC50 at Integrin alpha-4/beta-1 amounted to 0.33 nM; on Integrin alpha-4/beta-7 [2] it was 83 nM.

As to `COc1ccccc1-c1ccc(C[C@H](NC(=O)C2(S(=O)(=O)c3cccc(C)c3)CCCCC2)C(=O)O)cc1`, the concentration for half-maximal inhibition (IC50) on Integrin alpha-4/beta-1 is 1 nM; at Integrin alpha-4/beta-7 [2], 77 nM.

Take `O=C(O)[C@H](Cc1ccc(-c2ccccc2)cc1)NC(=O)C1(S(=O)(=O)c2ccc(Br)cc2)CCCC1`: the 50% inhibitory concentration (IC50) on Integrin alpha-4/beta-1 came out at 23 nM. Also, the inhibition in series [1] amounted to 20%.

For the molecule `COc1ccccc1-c1ccc(C[C@H](NC(=O)C2(S(=O)(=O)C3CCCCC3)CCCC2)C(=O)O)cc1`, the IC50 is 1.1 nM on Integrin alpha-4/beta-1 and 52 nM at Integrin alpha-4/beta-7 [2].

Broadly, the IC50 is the point on the concentration scale where inhibition reaches its midpoint. Usually inhibition stands for the change of the read-out against control, counted positive when it falls. A word on the bioavailability: it is dose-corrected exposure relative to a reference, in per cent. Read a low bioavailability as little systemic uptake. In general, half-life refers to the time needed for the level to fall by half in the phase considered. Lower therefore signals fast loss.
